What was measured:
[1] = Inhibition of topoisomerase 1 in Saccharomyces cerevisiae RS321N in galactose medium by microtiter plate assay
[2] = Inhibition of topoisomerase 1 in Saccharomyces cerevisiae RS321N in glucose medium by microtiter plate assay

Row | IC50 [1] [µM] | IC50 [2] [µM] | Structure (SMILES)
1 | 4.81 | 5.71 | COc1ccc(/C=C\c2cc(OC)c(OC)c(OC)c2)c(O)c1O [combretastatins A-1]
2 | 138 | > 201 | COc1ccc(CCc2cc(OC)c(OC)c(OC)c2)c(O[C@H]2O[C@@H](CO)[C@H](O)[C@@H](O)[C@@H]2O)c1O
